Several values for one entry are separate records, joined by “and”; a condition that tells them apart may be missing. Equal values may be shown once.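 48-hour exposure; five concentrations; linearly interpolated endpoints. Here, GI50 denotes the concentration required for 50% inhibition of growth. The concentration for full growth arrest is given as TGI.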
Key:
Assay in all cases: growth of human tumour cells (NCI), 48 h
786-0 renal = test system: 786-0 renal
A498 renal = test system: A498 renal
A549 NSCLC = test system: A549 NSCLC
ACHN renal = test system: ACHN renal
BT-549 breast = test system: BT-549 breast
CAKI-1 renal = test system: CAKI-1 renal
CCRF-CEM leukemia = test system: CCRF-CEM leukemia
COLO 205 colon = test system: COLO 205 colon
DLD-1 colon = test system: DLD-1 colon
DMS 114 small cell lung = test system: DMS 114 small cell lung
DMS 273 small cell lung = test system: DMS 273 small cell lung
DU-145 prostate = test system: DU-145 prostate
EKVX NSCLC = test system: EKVX NSCLC
HCC-2998 colon = test system: HCC-2998 colon
HCT-116 colon = test system: HCT-116 colon
HCT-15 colon = test system: HCT-15 colon
HL-60(TB) leukemia = test system: HL-60(TB) leukemia
HOP-18 NSCLC = test system: HOP-18 NSCLC
HOP-62 NSCLC = test system: HOP-62 NSCLC
HOP-92 NSCLC = test system: HOP-92 NSCLC
HS 578T breast = test system: HS 578T breast
HT29 colon = test system: HT29 colon
IGROV1 ovarian = test system: IGROV1 ovarian
K-562 leukemia = test system: K-562 leukemia
KM12 colon = test system: KM12 colon
KM20L2 colon = test system: KM20L2 colon
LOX IMVI melanoma = test system: LOX IMVI melanoma
LXFL 529 NSCLC = test system: LXFL 529 NSCLC
M14 melanoma = test system: M14 melanoma
M19-MEL melanoma = test system: M19-MEL melanoma
MALME-3M melanoma = test system: MALME-3M melanoma
MCF7 breast = test system: MCF7 breast
MDA-MB-231 breast = test system: MDA-MB-231 breast
MDA-MB-435 = test system: MDA-MB-435
MDA-N = test system: MDA-N
MOLT-4 leukemia = test system: MOLT-4 leukemia
NCI-H226 lung = test system: NCI-H226 lung
NCI-H23 lung = test system: NCI-H23 lung
NCI-H460 lung = test system: NCI-H460 lung
NCI-H522 lung = test system: NCI-H522 lung
NCI/ADR-RES ovarian = test system: NCI/ADR-RES ovarian
OVCAR-3 ovarian = test system: OVCAR-3 ovarian
OVCAR-4 ovarian = test system: OVCAR-4 ovarian
OVCAR-5 ovarian = test system: OVCAR-5 ovarian
OVCAR-8 ovarian = test system: OVCAR-8 ovarian
PC-3 prostate = test system: PC-3 prostate
RPMI-8226 leukemia = test system: RPMI-8226 leukemia
RXF 393 renal = test system: RXF 393 renal
SF-268 CNS = test system: SF-268 CNS
SF-295 CNS = test system: SF-295 CNS
SF-539 CNS = test system: SF-539 CNS
SK-MEL-2 melanoma = test system: SK-MEL-2 melanoma
SK-MEL-28 melanoma = test system: SK-MEL-28 melanoma
SK-MEL-5 melanoma = test system: SK-MEL-5 melanoma
SK-OV-3 ovarian = test system: SK-OV-3 ovarian
SN12C renal = test system: SN12C renal
SNB-19 CNS = test system: SNB-19 CNS
SNB-75 CNS = test system: SNB-75 CNS
SNB-78 CNS = test system: SNB-78 CNS
SR leukemia = test system: SR leukemia
SW-620 colon = test system: SW-620 colon
T-47D breast = test system: T-47D breast
TK-10 renal = test system: TK-10 renal
U251 CNS = test system: U251 CNS
UACC-257 melanoma = test system: UACC-257 melanoma
UACC-62 melanoma = test system: UACC-62 melanoma
UO-31 renal = test system: UO-31 renal
XF 498 CNS = test system: XF 498 CNS

Q: For `Cc1ccc(C)c(NC(=O)CC2Sc3ccccc3NC2=O)c1` (stereo unspecified), which TGI (786-0 renal) is on record?
A: 30.7 µM and 58.6 µM

Q: And the GI50 (A498 renal)?
A: 15.1 µM and 34 µM

Q: And the TGI (A498 renal)?
A: 23.7 µM and 60.9 µM

Q: And the GI50 (A549 NSCLC)?
A: 24.9 µM and 70.8 µM

Q: What about the TGI (A549 NSCLC) of the same compound?
A: > 100 µM

Q: And the GI50 (ACHN renal)?
A: 38.3 µM

Q: What about the TGI (ACHN renal) of the same compound?
A: > 86.5 µM

Q: What about the GI50 (BT-549 breast) of the same compound?
A: 19.2 µM and 39 µM

Q: What about the TGI (BT-549 breast) of the same compound?
A: 82.4 µM and > 95.8 µM

Q: And the GI50 (CAKI-1 renal)?
A: 18.9 µM and 45.2 µM

Q: And the TGI (CAKI-1 renal)?
A: 33.1 µM and 99.1 µM

Q: And the TGI (CCRF-CEM leukemia)?
A: > 100 µM

Q: And the TGI (COLO 205 colon)?
A: > 100 µM

Q: And the GI50 (DLD-1 colon)?
A: > 93.6 µM

Q: What about the TGI (DLD-1 colon) of the same compound?
A: > 100 µM

Q: What about the TGI (DMS 114 small cell lung) of the same compound?
A: > 100 µM

Q: And the GI50 (DMS 273 small cell lung)?
A: 23.1 µM and 97 µM

Q: What about the TGI (DMS 273 small cell lung) of the same compound?
A: > 100 µM

Q: And the TGI (DU-145 prostate)?
A: > 100 µM

Q: What about the TGI (EKVX NSCLC) of the same compound?
A: > 100 µM

Q: What about the GI50 (HCC-2998 colon) of the same compound?
A: 19 µM and 61.9 µM

Q: What about the TGI (HCC-2998 colon) of the same compound?
A: 34.8 µM and > 100 µM

Q: And the GI50 (HCT-116 colon)?
A: 15.9 µM and 36.9 µM

Q: What about the TGI (HCT-116 colon) of the same compound?
A: 25.2 µM and > 94.5 µM

Q: And the TGI (HCT-15 colon)?
A: > 100 µM

Q: And the TGI (HL-60(TB) leukemia)?
A: > 100 µM

Q: And the TGI (HOP-18 NSCLC)?
A: 36 µM and 70 µM

Q: What about the TGI (HOP-62 NSCLC) of the same compound?
A: 34.1 µM and 48.1 µM

Q: And the TGI (HOP-92 NSCLC)?
A: 16.9 µM and 42.5 µM

Q: What about the TGI (HS 578T breast) of the same compound?
A: > 75.2 µM

Q: And the GI50 (HT29 colon)?
A: 31.4 µM and > 100 µM

Q: What about the TGI (HT29 colon) of the same compound?
A: > 100 µM

Q: What about the TGI (IGROV1 ovarian) of the same compound?
A: 36.6 µM and > 76.3 µM

Q: And the TGI (K-562 leukemia)?
A: > 100 µM

Q: And the GI50 (KM12 colon)?
A: 22.7 µM and > 100 µM

Q: What about the TGI (KM12 colon) of the same compound?
A: > 100 µM

Q: And the TGI (KM20L2 colon)?
A: > 100 µM

Q: What about the GI50 (LOX IMVI melanoma) of the same compound?
A: 34.5 µM and > 81.5 µM

Q: What about the TGI (LOX IMVI melanoma) of the same compound?
A: > 100 µM

Q: What about the GI50 (LXFL 529 NSCLC) of the same compound?
A: 23 µM and 99 µM

Q: And the TGI (LXFL 529 NSCLC)?
A: > 100 µM

Q: And the TGI (M14 melanoma)?
A: > 100 µM

Q: And the GI50 (M19-MEL melanoma)?
A: 37 µM and > 100 µM

Q: And the TGI (M19-MEL melanoma)?
A: > 100 µM

Q: And the GI50 (MALME-3M melanoma)?
A: 27.8 µM and 64.8 µM

Q: And the TGI (MALME-3M melanoma)?
A: 48.2 µM and > 100 µM

Q: What about the TGI (MCF7 breast) of the same compound?
A: > 100 µM

Q: What about the GI50 (MDA-MB-231 breast) of the same compound?
A: 5.08 µM and 34.8 µM

Q: And the TGI (MDA-MB-231 breast)?
A: 28.9 µM and > 65.6 µM

Q: What about the TGI (MDA-MB-435) of the same compound?
A: 85 µM and > 100 µM

Q: What about the GI50 (MDA-N) of the same compound?
A: 22.1 µM and > 65.6 µM

Q: What about the TGI (MDA-N) of the same compound?
A: > 100 µM

Q: What about the TGI (MOLT-4 leukemia) of the same compound?
A: > 100 µM

Q: What about the GI50 (NCI-H226 lung) of the same compound?
A: 15.9 µM and 37.2 µM

Q: What about the TGI (NCI-H226 lung) of the same compound?
A: 28.6 µM and 67.2 µM

Q: And the GI50 (NCI-H23 lung)?
A: 17.8 µM and 47.3 µM

Q: What about the TGI (NCI-H23 lung) of the same compound?
A: 38.4 µM and > 96.2 µM

Q: And the GI50 (NCI-H460 lung)?
A: 33.6 µM and > 74.1 µM

Q: What about the TGI (NCI-H460 lung) of the same compound?
A: > 100 µM

Q: What about the GI50 (NCI-H522 lung) of the same compound?
A: 21.7 µM and 45.6 µM

Q: What about the TGI (NCI-H522 lung) of the same compound?
A: 60.6 µM and > 93.8 µM

Q: And the TGI (NCI/ADR-RES ovarian)?
A: > 74.3 µM

Q: What about the GI50 (OVCAR-3 ovarian) of the same compound?
A: 14.6 µM and 30.3 µM

Q: And the TGI (OVCAR-3 ovarian)?
A: 23.7 µM and 58.4 µM

Q: What about the GI50 (OVCAR-4 ovarian) of the same compound?
A: 14.8 µM and 31.3 µM

Q: And the TGI (OVCAR-4 ovarian)?
A: 24 µM and 57.7 µM

Q: And the GI50 (OVCAR-5 ovarian)?
A: 46.5 µM and > 100 µM

Q: And the TGI (OVCAR-5 ovarian)?
A: > 100 µM

Q: What about the TGI (OVCAR-8 ovarian) of the same compound?
A: 27 µM and 45.3 µM

Q: What about the TGI (PC-3 prostate) of the same compound?
A: > 100 µM

Q: What about the TGI (RPMI-8226 leukemia) of the same compound?
A: > 100 µM

Q: And the GI50 (RXF 393 renal)?
A: 6.39 µM and 14 µM

Q: And the TGI (RXF 393 renal)?
A: 12.8 µM and 28.4 µM

Q: And the TGI (SF-268 CNS)?
A: 26.1 µM and 74.2 µM

Q: What about the TGI (SF-295 CNS) of the same compound?
A: > 100 µM

Q: What about the TGI (SF-539 CNS) of the same compound?
A: 41.2 µM and 68.8 µM

Q: What about the TGI (SK-MEL-2 melanoma) of the same compound?
A: > 100 µM

Q: What about the GI50 (SK-MEL-28 melanoma) of the same compound?
A: 34.9 µM and > 100 µM

Q: And the TGI (SK-MEL-28 melanoma)?
A: 54.7 µM and > 100 µM

Q: What about the GI50 (SK-MEL-5 melanoma) of the same compound?
A: 30.3 µM and 91.6 µM

Q: What about the TGI (SK-MEL-5 melanoma) of the same compound?
A: 43.2 µM and > 100 µM

Q: What about the TGI (SK-OV-3 ovarian) of the same compound?
A: 38.3 µM and 48.3 µM

Q: And the GI50 (SN12C renal)?
A: 19.5 µM and 44.7 µM

Q: What about the TGI (SN12C renal) of the same compound?
A: 33.4 µM and > 88.1 µM

Q: And the TGI (SNB-19 CNS)?
A: 42.1 µM and 63.8 µM

Q: What about the TGI (SNB-75 CNS) of the same compound?
A: 18.8 µM and 29.8 µM

Q: And the TGI (SNB-78 CNS)?
A: 28.9 µM and 61.1 µM

Q: And the TGI (SR leukemia)?
A: > 100 µM

Q: What about the GI50 (SW-620 colon) of the same compound?
A: 26.2 µM and > 77.1 µM

Q: What about the TGI (SW-620 colon) of the same compound?
A: > 100 µM

Q: What about the GI50 (T-47D breast) of the same compound?
A: 17.4 µM and > 63.1 µM

Q: And the TGI (T-47D breast)?
A: 83.9 µM and > 100 µM

Q: What about the GI50 (TK-10 renal) of the same compound?
A: 18.3 µM and 41.9 µM

Q: And the TGI (TK-10 renal)?
A: 35.5 µM and > 87.3 µM

Q: What about the TGI (U251 CNS) of the same compound?
A: 25.4 µM and 52.2 µM

Q: What about the TGI (UACC-257 melanoma) of the same compound?
A: > 97.1 µM

Q: And the TGI (UACC-62 melanoma)?
A: > 100 µM

Q: What about the GI50 (UO-31 renal) of the same compound?
A: 14.5 µM and 30 µM

Q: And the TGI (UO-31 renal)?
A: 23 µM and 55.7 µM

Q: And the GI50 (XF 498 CNS)?
A: 13.7 µM and 29.1 µM

Q: And the TGI (XF 498 CNS)?
A: 22.7 µM and > 100 µM

Source: PubChem BioAssay (NCI)
